Source: patent publication US20070208166A1, “Tao Kinase Modulators And Method Of Use” (Exelixis, Inc., priority 2003, published 2007)

Key:
Format in all cases: biochemical
JIK = molecular target: T1, JIK (Homo sapiens, UniProt Q9H2K8); assay: JIK Luciferase-Coupled Chemiluminescent Kinase assay (LCCA); details: 2 μM ATP, 10 μM MBP, 6 nM JIK, 2 hours; read-out: JIK inhibition IC50
T1 construct: 6 nM JIK (baculovirus expressed human KIAA 1361 kinase domain2-318); made in house
T1 sequence (Q9H2K8 2-318): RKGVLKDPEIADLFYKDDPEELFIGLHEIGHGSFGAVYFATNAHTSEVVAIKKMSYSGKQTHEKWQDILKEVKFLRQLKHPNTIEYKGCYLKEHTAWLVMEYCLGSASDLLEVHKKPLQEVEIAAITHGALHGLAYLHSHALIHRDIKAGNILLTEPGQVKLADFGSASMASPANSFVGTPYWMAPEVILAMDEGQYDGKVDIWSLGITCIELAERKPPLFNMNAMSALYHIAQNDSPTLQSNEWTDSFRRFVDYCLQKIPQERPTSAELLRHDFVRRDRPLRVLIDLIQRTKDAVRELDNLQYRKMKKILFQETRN
Method in brief: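 Baculovirus-expressed human KIAA 1361 kinase domain 2-318 at 6 nM, with 10 μM MBP and 2 μM ATP in Tris pH 7.5 with Mg/Mn, ran 2 h at ambient temperature. Remaining ATP was read by luciferase chemiluminescence. IC50 comes from a 10-concentration four-parameter fit.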

[1] = molecular target: T2, KIAA 1361 (baculovirus expressed human KIAA 1361 kinase domain 2-322) (Homo sapiens, UniProt Q7L7X3); assay: KIAA 1361 Luciferase-Coupled Chemiluminescent Kinase assay (LCCA); details: 2 μM ATP, 10 μM MBP, 12 nM KIAA 1361, 2 hours; read-out: KIAA1361 inhibition IC50
T2 construct: human KIAA 1361 kinase domain 2-322; made in house
T2 sequence (Q7L7X3 2-322): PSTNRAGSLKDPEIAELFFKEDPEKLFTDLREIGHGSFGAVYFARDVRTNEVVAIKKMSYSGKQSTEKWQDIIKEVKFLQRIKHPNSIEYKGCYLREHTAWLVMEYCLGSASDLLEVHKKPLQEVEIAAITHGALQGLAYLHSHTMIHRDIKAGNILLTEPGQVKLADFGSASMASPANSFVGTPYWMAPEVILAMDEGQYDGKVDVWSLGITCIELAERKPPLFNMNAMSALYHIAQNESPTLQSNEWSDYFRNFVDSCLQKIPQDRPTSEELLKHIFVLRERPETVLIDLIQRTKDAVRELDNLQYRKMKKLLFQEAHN
Method in brief: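 KIAA 1361 kinase domain 2-322 (baculovirus, 12 nM) with 2 μM ATP and 10 μM MBP in Tris pH 7.5, MgCl2, MnCl2; 2 h, ambient. Remaining ATP read by luciferase chemiluminescence; 10 concentrations, IC50 by four-parameter fit.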

TAO = molecular target: T3, TAO (Homo sapiens, UniProt Q9UL54); assay: TAO Luciferase-Coupled Chemiluminescent Kinase assay (LCCA); details: 2 μM ATP, 10 μM MBP, 12 nM TAO, 2 hours; read-out: TAO inhibition IC50
T3 sequence (Q9UL54 1-1235): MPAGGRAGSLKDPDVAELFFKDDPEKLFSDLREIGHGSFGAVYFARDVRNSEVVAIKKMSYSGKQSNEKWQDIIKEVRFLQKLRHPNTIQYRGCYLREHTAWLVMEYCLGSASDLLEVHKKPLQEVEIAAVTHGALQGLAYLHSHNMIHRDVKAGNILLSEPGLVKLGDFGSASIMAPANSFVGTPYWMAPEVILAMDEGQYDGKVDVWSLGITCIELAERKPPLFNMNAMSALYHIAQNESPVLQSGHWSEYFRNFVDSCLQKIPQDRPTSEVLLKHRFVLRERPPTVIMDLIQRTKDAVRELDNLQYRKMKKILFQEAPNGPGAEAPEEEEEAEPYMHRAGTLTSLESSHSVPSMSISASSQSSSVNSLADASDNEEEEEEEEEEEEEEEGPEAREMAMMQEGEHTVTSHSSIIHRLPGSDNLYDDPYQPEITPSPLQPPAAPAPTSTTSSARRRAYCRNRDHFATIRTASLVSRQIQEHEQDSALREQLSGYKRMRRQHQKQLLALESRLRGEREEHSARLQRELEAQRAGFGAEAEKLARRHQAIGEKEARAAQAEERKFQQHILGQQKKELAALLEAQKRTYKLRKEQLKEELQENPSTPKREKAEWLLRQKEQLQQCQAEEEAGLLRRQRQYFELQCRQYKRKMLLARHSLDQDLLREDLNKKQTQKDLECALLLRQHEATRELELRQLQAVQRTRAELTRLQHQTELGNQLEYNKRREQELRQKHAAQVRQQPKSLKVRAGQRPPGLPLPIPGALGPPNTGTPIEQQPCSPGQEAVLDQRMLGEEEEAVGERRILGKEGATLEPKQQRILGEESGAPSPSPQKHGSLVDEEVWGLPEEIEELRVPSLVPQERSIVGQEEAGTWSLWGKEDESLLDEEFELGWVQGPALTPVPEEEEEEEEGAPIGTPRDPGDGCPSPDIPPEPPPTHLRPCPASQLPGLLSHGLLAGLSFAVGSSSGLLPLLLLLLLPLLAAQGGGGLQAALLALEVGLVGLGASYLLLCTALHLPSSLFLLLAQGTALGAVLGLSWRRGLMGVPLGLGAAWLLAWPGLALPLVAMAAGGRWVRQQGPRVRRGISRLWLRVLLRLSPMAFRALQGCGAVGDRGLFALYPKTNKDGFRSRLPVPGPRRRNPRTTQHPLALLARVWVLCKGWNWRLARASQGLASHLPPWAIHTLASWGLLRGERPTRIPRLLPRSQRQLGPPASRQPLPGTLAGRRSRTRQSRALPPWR

Compound | IC50 (JIK) [nM] | IC50 [1] [nM] | IC50 (TAO) [nM]
CCc1ccc(-c2ccc(C(=O)NCC(=O)N3CCN(c4ccccc4)CC3)cc2)cc1 [Entry 68, 4′-ethyl-N-[2-oxo-2-(4-phenylpiperazin-1-yl)ethyl]biphenyl-4-carboxamide] | > 5000 | > 5000 | > 5000
N-˜2˜-({[4-(1,1-dimethylethyl)phenyl]oxy}acetyl)-N-(1,2,3,4-tetrahydronaphthalen-1-yl)glycinamide [Entry 33] | 500 to 5000 | 500 to 5000 | > 5000
CCCCc1ccc(C(=O)NCC(=O)NC2CCCc3ccccc32)cc1 (stereo not drawn) [Entry 29, 4-butyl-N-[2-oxo-2-(1,2,3,4-tetrahydronaphthalen-1-ylamino)ethyl]benzamide] | 500 to 5000 | 500 to 5000 | > 5000
CCc1ccc(-c2ccc(C(=O)NCC(=O)Nc3cccc4ccccc34)cc2)cc1 [Entry 67, 4′-ethyl-N-[2-(naphthalen-1-ylamino)-2-oxoethyl]biphenyl-4-carboxamide] | < 50 | < 50 | 50 to 500
CCc1ccc(-c2ccc(C(=O)NCC(=O)NC3CCCc4ccccc43)cc2)cc1 (stereo not drawn) [Entry 4, 4′-ethyl-N-[2-oxo-2-(1,2,3,4-tetrahydronaphthalen-1-ylamino)ethyl]biphenyl-4-carboxamide] | < 50 | < 50 | < 50
O=C(NCC1COc2ccccc2O1)c1ccc2c(c1)NC(=O)c1ccccc1N2 (stereo not drawn) [Entry 42, N-(2,3-dihydro-1,4-benzodioxin-2-ylmethyl)-11-oxo-10,11-dihydro-5H-dibenzo[b,e][1,4]diazepine-8-carboxamide] | < 50 | 50 to 500 | 50 to 500
CCc1ccc(-c2ccc(C(=O)NCC(=O)NC3CN(C(=O)OC(C)(C)C)Cc4ccccc43)cc2)cc1 (stereo not drawn) [Entry 95, 1,1-dimethylethyl 4-({N-[(4′-ethylbiphenyl-4-yl)carbonyl]glycyl}amino)-3,4-dihydroisoquinoline-2(1H)-carboxylate] | 500 to 5000 | > 5000 | > 5000
CCc1ccc(-c2ccc(C(=O)NCC(=O)NC3CNCc4ccccc43)cc2)cc1 (stereo not drawn) [Entry 96, 4′-ethyl-N-[2-oxo-2-(1,2,3,4-tetrahydroisoquinolin-4-ylamino)ethyl]biphenyl-4-carboxamide] | 500 to 5000 | 500 to 5000 | 500 to 5000
CCc1ccc(-c2ccc(C(=O)NCC(=O)N3Cc4ccccc4C3)cc2)cc1 [Entry 57, N-[2-(1,3-dihydro-2H-isoindol-2-yl)-2-oxoethyl]-4′-ethylbiphenyl-4-carboxamide] | > 5000 | > 5000 | > 5000
CCCCCCOc1ccc(C(=O)NCC(=O)NC2CCCc3ccccc32)cc1 (stereo not drawn) [Entry 6, 4-(hexyloxy)-N-[2-oxo-2-(1,2,3,4-tetrahydronaphthalen-1-ylamino)ethyl]benzamide] | < 50 | < 50 | 50 to 500
Cc1csc(NC(=O)CNC(=O)CC(NC(=O)c2ccccc2)c2ccccc2)n1 (stereo not drawn) [Entry 93, N-[3-({2-[(4-methyl-1,3-thiazol-2-yl)amino]-2-oxoethyl}amino)-3-oxo-1-phenylpropyl]benzamide] | > 5000 | > 5000 | > 5000
O=C(CNCc1ccc(-c2ccccc2)cc1)NC1CCCc2ccccc21 (stereo not drawn) [Entry 69, N˜2˜-(biphenyl-4-ylmethyl)-N-(1,2,3,4-tetrahydronaphthalen-1-yl)glycinamide] | > 5000 | > 5000 | > 5000
COc1ccc(/C=C/C(=O)N2Cc3[nH]cnc3CC2C(=O)NCCc2cccc(Cl)c2)cc1OC (stereo not drawn) [Entry 15, 5-{(2E)-3-[3,4-bis(methyloxy)phenyl]prop-2-enoyl}-N-[2-(3-chlorophenyl)ethyl]-4,5,6,7-tetrahydro-3H-imidazol[4,5-c]pyridine-6-carboxamide] | < 50 | 50 to 500 | 500 to 5000
